Values quoted from earlier work in US9169190B2, “Methods for making retinoids and uses thereof” (The UAB Research Foundation, priority 2004, dated 2015).

Tests used:
[1] = test system: acute promyelocytic leukemia (APL); details: patients with APL
[2] = test system: juvenile myelomonocytic leukemia (JMML); details: children with JMML
[3] = test system: MNU-induced mammary cancers; details: added to the diet of rats
mammary cancers = details: compared with 9cRA

For `CC1=C(/C=C/C(C)=C/C=C/C(C)=C/C(=O)O)C(C)(C)CCC1` [(all-E)-RA, All-trans-retinoic acid], the complete remission rate [1] is listed as 90%.
For `CC1=C(/C=C/C(C)=C/C=C/C(C)=C\C(=O)O)C(C)(C)CCC1` [(13Z)-RA], the “children in whom excessive myeloproliferation is effectively controlled” value [2] is given as “up to 50%”.
For `CC1=C(/C=C/C(C)=C\C=C\C(C)=C\C(=O)O)C(C)(C)CCC1` [9cRA], the “reduction of the number of MNU-induced mammary cancers” value [3] is listed as 92%.
For `CC(=C/C=C/C(C)=C/C(=O)O)/C=C1\CCCc2ccccc21` [9cUAB30], the “chemopreventive efficacy of mammary cancers relative to 9cRA” value (mammary cancers) is given as “comparable” and the “toxicity relative to 9cRA” value (mammary cancers) is given as “less toxic”.
